From patent US20080311126A1, “Antisense Oligonucleotides Directed to Ribonucleotide Reducatase R2 and Uses Thereof in Combination Therapies for the Treatment of Cancer” (Genesense Technologies, Inc, priority 2004, published 2008)
Oligonucleotides are written 5' to 3', each unit as a sugar letter and its base; * is a phosphorothioate linkage, no mark a phosphodiester; rarer units and linkages stand in square brackets, end groups in braces. Plain capitals give the bases only. d = 2'-deoxy (DNA)

Key:
Type in all cases: cell-based, human
Hela S3 cells = experiment: Relative colony forming efficiency, lipofectin +/- oligonucleotide 4 hours; details: Hela S3 cervix carcinoma cells; averages of 2-8 determinations
In short: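 HeLa S3 cells were exposed to phosphorothioate antisense oligonucleotide (0.2 μM unless stated) with lipofectin for 4 h, then grown 7–10 days in 10% FBS medium. Methylene blue-stained colonies were counted and expressed as percent survival relative to lipofectin-only controls.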

[1] = tested on: HepG2 hepatocellular carcinoma; experiment: Relative colony forming efficiency (Example 17, Table 13); details: averages of 2-8 determinations
In short: (§1)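 Phosphorothioate antisense oligodeoxynucleotides, at 0.2 μM unless otherwise indicated, were applied with 2.5 μg DOTMA/DOPE (Lipofectin) for 4 h. Colonies stained with methylene blue and scored, with viability sometimes checked by trypan blue exclusion. Values given as % inhibition of colony formation relative to lipofectin-only controls.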

[2] = tested on: MDA-MB-231 breast cell adenocarcinoma; experiment: as above; details: averages of 2-8 determinations
In short: as §1

[3] = tested on: H596 lung adenosquamous carcinoma cells; experiment: as above; details: averages of 2-8 determinations
In short: as §1

A549 lung cell carcinoma = experiment: as above; details: averages of 2-8 determinations
In short: as §1

[4] = tested on: PC-3 prostrate cell adenocarcinoma; experiment: as above; details: averages of 2-8 determinations
In short: as §1

[5] = tested on: T-47D breast ductal carcinoma; experiment: as above; details: averages of 2-8 determinations
In short: as §1

[6] = tested on: T24 bladder cell carcinoma; experiment: as above; details: averages of 2-8 determinations
In short: as §1

[7] = tested on: HCT116 colon cell carcinoma; experiment: as above; details: averages of 2-8 determinations
In short: as §1

[8] = tested on: MDA PaCa-2 pancreatic cell carcinoma; experiment: as above; details: MIA PaCa-2 pancreatic cell carcinoma; averages of 2-8 determinations
In short: as §1

Substance: G*CC*TCCG*ACC*CTTC*CC*ATT*G (antisense dG*dCdC*dTdCdCdG*dAdCdC*dCdTdTdC*dCdC*dAdTdT*dG) [AS-II-13-20]
- Reduced relative colony forming efficiency, Hela S3 (% inhibition of colony forming ability) (Hela S3 cells): 19.85%
- Reduced relative colony forming efficiency, HepG2 (% inhibition of colony forming ability) [1]: 24.11%
- Reduced relative colony forming efficiency, MDA-MB-231 (% inhibition of colony forming ability) [2]: 45.45%
- Reduced relative colony forming efficiency, 11596 (% inhibition of colony forming ability) [3]: 19.63%
- Reduced relative colony forming efficiency, A549 (% inhibition of colony forming ability) (A549 lung cell carcinoma): 32.3%
- Reduced relative colony forming efficiency, PC-3 (% inhibition of colony forming ability) [4]: 52.38%
- Reduced relative colony forming efficiency, T-47D (% inhibition of colony forming ability) [5]: 15.33%
- Reduced relative colony forming efficiency, T24 (% inhibition of colony forming ability) [6]: 18.99%
- Reduced relative colony forming efficiency, HCT116 (% inhibition of colony forming ability) [7]: 6.95%

Substance: GACACAAGGCATCGTTTCAA (antisense dG*dA*dC*dA*dC*dA*dA*dG*dG*dC*dA*dT*dC*dG*dT*dT*dT*dC*dA*dA) [AS-II-784-20]
- Reduced relative colony forming efficiency, Hela S3 (% inhibition of colony forming ability) (Hela S3 cells): 81.48%
- Reduced relative colony forming efficiency, HepG2 (% inhibition of colony forming ability) [1]: 80.89%
- Reduced relative colony forming efficiency, MDA-MB-231 (% inhibition of colony forming ability) [2]: 33.92%
- Reduced relative colony forming efficiency, A549 (% inhibition of colony forming ability) (A549 lung cell carcinoma): 83.8%
- Reduced relative colony forming efficiency, PC-3 (% inhibition of colony forming ability) [4]: 88.99%
- Reduced relative colony forming efficiency, T-47D (% inhibition of colony forming ability) [5]: 85.39%
- Reduced relative colony forming efficiency, T24 (% inhibition of colony forming ability) [6]: 87.23%
- Reduced relative colony forming efficiency, HCT116 (% inhibition of colony forming ability) [7]: 78.09%
- Reduced relative colony forming efficiency, MIA PaCa-2 (% inhibition of colony forming ability) [8]: 62.04%

Substance: GCACGGGCGACC (antisense dG*dC*dA*dC*dG*dG*dG*dC*dG*dA*dC*dC) [AS-II-127-12]
- Reduced relative colony forming efficiency, Hela S3 (% inhibition of colony forming ability) (Hela S3 cells): 86.45%
- Reduced relative colony forming efficiency, HepG2 (% inhibition of colony forming ability) [1]: 71.75%
- Reduced relative colony forming efficiency, MDA-MB-231 (% inhibition of colony forming ability) [2]: 38.46%
- Reduced relative colony forming efficiency, A549 (% inhibition of colony forming ability) (A549 lung cell carcinoma): 69.33%
- Reduced relative colony forming efficiency, PC-3 (% inhibition of colony forming ability) [4]: 79.56%
- Reduced relative colony forming efficiency, T-47D (% inhibition of colony forming ability) [5]: 37.54%
- Reduced relative colony forming efficiency, T24 (% inhibition of colony forming ability) [6]: 50.63%
- Reduced relative colony forming efficiency, HCT116 (% inhibition of colony forming ability) [7]: 54.34%
- Reduced relative colony forming efficiency, MIA PaCa-2 (% inhibition of colony forming ability) [8]: 53.34%

Substance: GCGAGCGGGACACGGAGGGA (antisense dG*dC*dG*dA*dG*dC*dG*dG*dG*dA*dC*dA*dC*dG*dG*dA*dG*dG*dG*dA) [AS-II-201-20]
- Reduced relative colony forming efficiency, Hela S3 (% inhibition of colony forming ability) (Hela S3 cells): 90.87%
- Reduced relative colony forming efficiency, HepG2 (% inhibition of colony forming ability) [1]: 59.32%
- Reduced relative colony forming efficiency, MDA-MB-231 (% inhibition of colony forming ability) [2]: 25.17%
- Reduced relative colony forming efficiency, 11596 (% inhibition of colony forming ability) [3]: 49.6%
- Reduced relative colony forming efficiency, A549 (% inhibition of colony forming ability) (A549 lung cell carcinoma): 90.55%
- Reduced relative colony forming efficiency, PC-3 (% inhibition of colony forming ability) [4]: 65.08%
- Reduced relative colony forming efficiency, T-47D (% inhibition of colony forming ability) [5]: 98.53%
- Reduced relative colony forming efficiency, T24 (% inhibition of colony forming ability) [6]: 96.2%
- Reduced relative colony forming efficiency, HCT116 (% inhibition of colony forming ability) [7]: 45.56%

Substance: GGGAGAGCATAGTGGAGGCG (antisense dG*dG*dG*dA*dG*dA*dG*dC*dA*dT*dA*dG*dT*dG*dG*dA*dG*dG*dC*dG) [AS-II-185-20]
- Reduced relative colony forming efficiency, Hela S3 (% inhibition of colony forming ability) (Hela S3 cells): 19.38%
- Reduced relative colony forming efficiency, HepG2 (% inhibition of colony forming ability) [1]: 53.44%
- Reduced relative colony forming efficiency, MDA-MB-231 (% inhibition of colony forming ability) [2]: 17.4%
- Reduced relative colony forming efficiency, 11596 (% inhibition of colony forming ability) [3]: 24.53%
- Reduced relative colony forming efficiency, A549 (% inhibition of colony forming ability) (A549 lung cell carcinoma): 71.51%
- Reduced relative colony forming efficiency, PC-3 (% inhibition of colony forming ability) [4]: 4.37%
- Reduced relative colony forming efficiency, T-47D (% inhibition of colony forming ability) [5]: 94.52%
- Reduced relative colony forming efficiency, T24 (% inhibition of colony forming ability) [6]: 21.94%
- Reduced relative colony forming efficiency, MIA PaCa-2 (% inhibition of colony forming ability) [8]: 29.32%

Substance: TGCCTCCGACCCTTCCCA (antisense dT*dG*dC*dC*dT*dC*dC*dG*dA*dC*dC*dC*dT*dT*dC*dC*dC*dA) [AS-II-16-18]
- Reduced relative colony forming efficiency, Hela S3 (% inhibition of colony forming ability) (Hela S3 cells): 68.7%
- Reduced relative colony forming efficiency, HepG2 (% inhibition of colony forming ability) [1]: 75.89%
- Reduced relative colony forming efficiency, MDA-MB-231 (% inhibition of colony forming ability) [2]: 62.59%
- Reduced relative colony forming efficiency, 11596 (% inhibition of colony forming ability) [3]: 34.5%
- Reduced relative colony forming efficiency, A549 (% inhibition of colony forming ability) (A549 lung cell carcinoma): 81.1%
- Reduced relative colony forming efficiency, PC-3 (% inhibition of colony forming ability) [4]: 89.48%
- Reduced relative colony forming efficiency, T-47D (% inhibition of colony forming ability) [5]: 7.13%
- Reduced relative colony forming efficiency, T24 (% inhibition of colony forming ability) [6]: 25.74%
- Reduced relative colony forming efficiency, HCT116 (% inhibition of colony forming ability) [7]: 78.57%
